# Molecular target: T1, Tyrosine-protein phosphatase non-receptor type 1 (Homo sapiens, UniProt P18031)
# T1 sequence (P18031 whole entry): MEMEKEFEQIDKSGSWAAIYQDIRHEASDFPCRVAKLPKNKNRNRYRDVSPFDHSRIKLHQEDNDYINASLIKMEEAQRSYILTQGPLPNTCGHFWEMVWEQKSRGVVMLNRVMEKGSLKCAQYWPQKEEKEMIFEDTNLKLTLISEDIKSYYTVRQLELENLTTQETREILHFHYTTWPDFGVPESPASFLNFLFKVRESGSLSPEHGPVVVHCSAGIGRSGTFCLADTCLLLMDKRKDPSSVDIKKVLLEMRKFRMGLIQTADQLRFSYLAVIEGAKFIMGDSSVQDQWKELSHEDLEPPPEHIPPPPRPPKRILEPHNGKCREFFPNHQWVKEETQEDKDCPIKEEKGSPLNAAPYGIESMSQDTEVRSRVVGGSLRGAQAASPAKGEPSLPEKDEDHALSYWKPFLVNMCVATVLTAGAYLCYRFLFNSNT
# Experiment: Inhibition of human recombinant PTP1B
row,SMILES,IC50
1,CC(C)=CCC/C(C)=C/Cc1c(O)cc(O)cc1-c1cc2ccc(O)cc2o1 [ALBAFURAN A],9.2 µM
2,CC(C)=CCc1c(O)cc(C(=O)[C@H]2[C@@H](c3c(O)ccc(C(=O)/C=C/c4ccc(O)cc4)c3O)C=C(C)C[C@@H]2c2ccc(O)cc2)cc1O [KUWANON V],13.8 µM
3,CC(C)=CCC/C(C)=C/Cc1c(O)ccc2cc(-c3cc(O)cc(O)c3CC=C(C)C)oc12 [MULBERROFURAN D],4.3 µM
4,CC(C)=CCC/C(C)=C\CC/C(C)=C\Cc1c(O)cc(O)cc1-c1cc2ccc(O)cc2o1 [MULBERROFURAN W],2.7 µM

# Continued, values first:
row,IC50,SMILES
1,2.7 µM,CC(C)=CCc1c(O)cc(C(=O)[C@H]2[C@@H](c3c(O)ccc(C(=O)/C=C/c4ccc(O)cc4O)c3O)C=C(C)C[C@@H]2c2ccc(O)cc2O)cc1O [KUWANON J]
2,8.2 µM,CC(C)=CCc1c(O)cc(C(=O)[C@H]2[C@@H](c3c(O)ccc(C(=O)/C=C/c4ccc(O)cc4)c3O)C=C(C)C[C@@H]2c2ccc(O)cc2O)cc1O [KUWANON R]

# — ChEMBL document CHEMBL1156122, “Protein tyrosine phosphatase 1B inhibitors isolated from Morus bombycis” (Bioorg Med Chem Lett, 2009)
